In test [1] the target is T1, human M2 receptor (Homo sapiens, UniProt P08172).
T1 sequence (P08172 1-466): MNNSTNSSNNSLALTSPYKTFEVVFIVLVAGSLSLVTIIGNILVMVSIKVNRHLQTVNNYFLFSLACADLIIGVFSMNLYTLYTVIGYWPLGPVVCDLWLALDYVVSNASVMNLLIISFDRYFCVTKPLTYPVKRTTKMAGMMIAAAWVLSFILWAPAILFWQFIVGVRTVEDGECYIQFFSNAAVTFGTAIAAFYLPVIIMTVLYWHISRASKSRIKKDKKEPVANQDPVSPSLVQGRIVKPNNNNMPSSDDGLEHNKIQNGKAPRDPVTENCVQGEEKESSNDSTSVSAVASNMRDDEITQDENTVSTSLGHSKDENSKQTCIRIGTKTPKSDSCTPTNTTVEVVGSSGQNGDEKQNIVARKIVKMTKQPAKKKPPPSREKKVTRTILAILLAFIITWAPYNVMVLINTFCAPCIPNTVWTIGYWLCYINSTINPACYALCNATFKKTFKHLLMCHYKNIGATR
It counts as cell-based. The settings on record: shift of acetylcholine dose-response curve (Allosteric EC50 shift); α >1 = positive cooperativity.

In test [2] the target is T1, human M2 receptor. As to conditions: M2-GIRK1/4 reporter cells; for EC50: Receptor activity EC50, allosteric potency at EC20 acetylcholine, in some cases mean of two or more determinations; for Emax: read-out: Efficiency, boosting of the acetylcholine effect at EC20 acetylcholine concentration.

The term EC50 denotes the concentration needed to bring the measured effect to its halfway point.

As for `O=C(N[C@@H](C1CC1)C(F)(F)F)c1cn(-c2c(F)cc(F)cc2F)c2nc(N3CCC(CO)(CO)CC3)ccc2c1=O` [Example 489, 7-[4,4-Bis(hydroxymethyl)piperidin-1-yl]-N-[(1S)-1-cyclopropyl-2,2,2-trifluoroethyl]-4-oxo-1-(2,4,6-trifluorophenyl)-1,4-dihydro-1,8-naphlthyridine-3-carboxamide], at human M2 receptor [1], the “Cooperativity (alpha factor)” value turned out to be 23. Also, at human M2 receptor [2], the EC50 came to 27 nM and the Emax came to 100%.
For `C[C@H](O)CN(C)c1ccc2c(=O)c(C(=O)N[C@@H](C3CC3)C(F)(F)F)cn(-c3c(F)cc(F)cc3F)c2n1` [Example 493], the “Cooperativity (alpha factor)” value on human M2 receptor [1] came out at 14. Also, at human M2 receptor [2], the EC50 was 16 nM and the Emax turned out to be 94.5%.
As to `C[C@@H](O)CN(C)c1ccc2c(=O)c(C(=O)N[C@@H](C3CC3)C(F)(F)F)cn(-c3c(F)cc(F)cc3F)c2n1` [Example 494], the “Cooperativity (alpha factor)” value on human M2 receptor [1] was 20. At human M2 receptor [2], the half-maximal effective concentration (EC50) came out at 28 nM and the Emax is 78%.
With `CC[C@H](NC(=O)c1cn(-c2c(F)cc(F)cc2F)c2nc(N3CC(CO)(CO)C3)ccc2c1=O)C(F)(F)F` [Example 503, 7-[3,3-Bis(hydroxymethyl)azetidin-1-yl]-4-oxo-N-[(2S)-trifluorobutan-2-yl]-1-(2,4,6-trifluorophenyl)-1,4-dihydro-1,8-naphthyridine-3-carboxamide], the “Cooperativity (alpha factor)” value on human M2 receptor [1] was found to be 24. In addition, on human M2 receptor [2], the response was half-maximal at 28 nM (EC50) and the Emax turned out to be 88.5%.
Taken in the same sequence, the figures for `CC(C)(C)[C@H](NC(=O)c1cn(-c2c(F)cc(F)cc2F)c2nc(N3C[C@@H](O)CC3=O)ccc2c1=O)C(F)(F)F` [Example 504, 7-[(4S)-4-Hydroxy-2-oxopyrrolidin-1-yl]-4-oxo-N-[(2S)-1,1,1-trifluoro-3,3-dimethylbutan-2-yl]-1-(2,4,6-trifluorophenyl)-1,4-dihydro-1,8-naphthyridine-3-carboxamide] were 47, 4 nM and 100%.
In the case of `O=C(NC1(C(F)(F)F)CCC1)c1cn(-c2c(F)cc(F)cc2F)c2nc(N3C[C@@H](O)CC3=O)ccc2c1=O` [Example 515, 7-[(4S)-4-Hydroxy-2-oxopyrrolidin-1-yl]-4-oxo-N-[1-(trifluoromethyl)cyclobutyl]-1-(2,4,6-trifluorophenyl)-1,4-dihydro-1,8-naphthyridine-3-carboxamide], the “Cooperativity (alpha factor)” value at human M2 receptor [1] was 37. Moreover, on human M2 receptor [2], the EC50 amounted to 12 nM and the Emax came to 99.3%.
Taken in the same sequence, the figures for `CC(C)(NC(=O)c1cn(-c2c(F)cc(F)cc2F)c2nc(N3C[C@@H](O)CC3=O)ccc2c1=O)C(F)F` [Example 516, N-(1,1-Difluoro-2-methylpropan-2-yl)-7-[(4S)-4-hydroxy-2-oxopyrrolidin-1-yl]-4-oxo-1-(2,4,6-trifluorophenyl)-1,4-dihydro-1,8-naphthyridine-3-carboxamide] were 35, 20 nM and 100%.
For `CO[C@H]1CCN(c2ccc3c(=O)c(C(=O)N[C@@H](C4CC4)C(F)(F)F)cn(-c4c(F)cc(F)cc4F)c3n2)C1` [Example 535, N-[(1 S)-1-Cyclopropyl-2,2,2-trifluoroethyl]-7-[(3S)-3-methoxypyrrolidin-1-yl]-4-oxo-1-(2,4,6-trifluorophenyl)-1,4-dihydro-1,8-naphthyridine-3-carboxamide], the “Cooperativity (alpha factor)” value on human M2 receptor [1] is 27. For the same molecule, at human M2 receptor [2], the half-maximal effective concentration (EC50) is 7 nM and the Emax was 100%.
With `CCN1CCCN(c2ccc3c(=O)c(C(=O)N[C@@H](C4CC4)C(F)(F)F)cn(-c4c(F)cc(F)cc4F)c3n2)C1=O` [Example 539, N-[(1S)-1-Cyclopropyl-2,2,2-trifluoroethyl]-7-(3-ethyl-2-oxotetrahydropyrimidin-1(2H)-yl)-4-oxo-1-(2,4,6-trifluorophenyl)-1,4-dihydro-1,8-naphthyridine-3-carboxamide], at human M2 receptor [1], the “Cooperativity (alpha factor)” value is on record as 21. Besides, at human M2 receptor [2], a half-maximal response (EC50) required 7 nM and the Emax was 86.5%.
Take `CC(C)C[C@H](NC(=O)c1cn(-c2c(F)cc(F)cc2F)c2nc(N3CCNC3=O)ccc2c1=O)C(F)(F)F` [Example 543, 4-Oxo-7-(2-oxoimidazolidin-1-yl)-N-[(2S)-1,1,1-trifluoro-4-methylpentan-2-yl)-1-(2,4,6-trifluorophenyl)-1,4-dihydro-1,8-naphthyridine-3-carboxamide]: the “Cooperativity (alpha factor)” value on human M2 receptor [1] was found to be 28. For the same molecule, at human M2 receptor [2], a half-maximal response (EC50) required 8 nM and the Emax was 100%.
In the case of `CC(C)C[C@H](NC(=O)c1cn(-c2c(F)cc(F)cc2F)c2nc(N3C[C@@H](O)[C@@H](O)C3)ccc2c1=O)C(F)(F)F` [Example 573, 7-[(3R,4S)-3,4-Dihydroxypyrrolidin-1-yl]-4-oxo-N-[(2S)-1,1,1-trifluoro-4-methylpentan-2-yl]-1-(2,4,6-trifluorophenyl)-1,4-dihydro-1,8-naphthyridine-3-carboxamide], the “Cooperativity (alpha factor)” value at human M2 receptor [1] is on record as 57. Besides, on human M2 receptor [2], the half-maximal effective concentration (EC50) stood at 12 nM and the Emax came to 100%.
As for `CC(C)C[C@@H](NC(=O)c1cn(-c2c(F)cc(F)cc2F)c2nc(N3C[C@@H](O)[C@@H](O)C3)ccc2c1=O)C(F)(F)F` [Example 574, 7-[(3R,4S)-3,4-Dihydroxypyrrolidin-1-yl]-4-oxo-N-[(2R)-1,1,1-trifluoro-4-methylpentan-2-yl]-1-(2,4,6-trifluorophenyl)-1,4-dihydro-1,8-naphthyridine-3-carboxamide], at human M2 receptor [1], the “Cooperativity (alpha factor)” value turned out to be 36. For the same molecule, at human M2 receptor [2], the midpoint of the response, the EC50, lay at 12 nM and the Emax was found to be 100%.
For `COC(=O)N1CCN(c2ccc3c(=O)c(C(=O)Nc4c(Cl)cccc4Cl)cn(-c4c(F)cc(F)cc4F)c3n2)CC1` [Example 593, Methyl 4-{6-[(2,6-dichlorophenyl)carbamoyl]-5-oxo-8-(2,4,6-trifluorophenyl)-5,8-dihydro-1,8-naphthyridin-2-yl}piperazine-1-carboxylate], the “Cooperativity (alpha factor)” value at human M2 receptor [1] was determined as 29. On human M2 receptor [2], the EC50 is 17 nM and the Emax came out at 89.5%.
With `CC[C@H](NC(=O)c1cn(-c2c(F)cc(F)cc2F)c2nc(N3CCN(C(=O)OC)CC3)ccc2c1=O)C(F)(F)F` [Example 595, Methyl 4-[5-oxo-6-{[(2S)-1,1,1-trifluorobutan-2-yl]carbamoyl}-8-(2,4,6-trifluorophenyl)-5,8-dihydro-1,8-naphthyridin-2-yl]piperazine-1-carboxylate], the “Cooperativity (alpha factor)” value at human M2 receptor [1] is recorded as 36. For the same molecule, on human M2 receptor [2], the half-maximal effective concentration (EC50) came out at 19 nM and the Emax was 94%.
`O=C(NC1(C(F)(F)F)CCC1)c1cn(-c2c(F)cc(F)cc2F)c2nc(N3CCNC3=O)ccc2c1=O` [Example 596, 4-Oxo-7-(2-oxoimidazolidin-1-yl)-N-[1-(trifluoromethyl)cyclobutyl]-1-(2,4,6-trifluorophenyl)-1,4-dihydro-1,8-naphthyridine-3-carboxamide]: the “Cooperativity (alpha factor)” value at human M2 receptor [1] was found to be 19. For the same molecule, on human M2 receptor [2], the EC50 worked out at 21 nM and the Emax came out at 98.5%.
In the case of `CC[C@@H](NC(=O)c1cn(-c2c(F)cccc2F)c2nc(N3C[C@@H](O)[C@H](O)C3)ccc2c1=O)C(F)(F)F` [Example 618, 1-(2,6-Difluorophenyl)-7-[(3R,4R)-3,4-dihydroxypyrrolidin-1-yl]-4-oxo-N-[(2R)-1,1,1-trifluorobutan-2-yl]-1,4-dihydro-1,8-naphthyridine-3-carboxamide], on human M2 receptor [1], the “Cooperativity (alpha factor)” value stood at 30. Moreover, at human M2 receptor [2], the concentration for a half-maximal effect (EC50) stood at 39 nM and the Emax was determined as 99%.
For `O=C(Nc1c(Cl)cccc1Cl)c1cn(-c2ccc(F)cc2F)c2nc(N3C[C@@H](O)[C@H](O)C3)ccc2c1=O` [Example 631, N-(2,6-Dichlorophenyl)-1-(2,4-difluorophenyl)-7-[(3R,4R)-3,4-dihydroxypyrrolidin-1-yl]-4-oxo-1,4-dihydro-1,8-naphthyridine-3-carboxamide], on human M2 receptor [1], the “Cooperativity (alpha factor)” value came to 23. For the same molecule, on human M2 receptor [2], it took 49 nM to reach a half-maximal effect (EC50) and the Emax amounted to 86%.
The corresponding values for `CC(C)(NC(=O)c1cn(-c2c(F)cc(F)cc2F)c2nc(N3C[C@@H](O)[C@H](O)C3)ccc2c1=O)C(F)F` [Example 634, N-(1,1-Difluoro-2-methylpropan-2-yl)-7-[(3R,4R)-3,4-dihydroxypyrrolidin-1-yl]-4-oxo-1-(2,4,6-trifluorophenyl)-1,4-dihydro-1,8-naphthyridine-3-carboxamide] are 48, 54 nM and 100%.
For the molecule `CC[C@@H](NC(=O)c1cn(-c2ccc(F)cc2F)c2nc(N3C[C@@H](O)[C@@H](O)C3)ccc2c1=O)C(F)(F)F` [Example 639, 1-(2,4-Difluorophenyl)-7-[(3R,4S)-3,4-dihydroxypyrrolidin-1-yl]-4-oxo-N-[(2R)-1,1,1-trifluorobutan-2-yl]-1,4-dihydro-1,8-naphthyridine-3-carboxamide], the “Cooperativity (alpha factor)” value on human M2 receptor [1] amounted to 25. Also, at human M2 receptor [2], the midpoint of the response, the EC50, lay at 68 nM and the Emax worked out at 96.5%.

(Values after patent publication US20190367516A1 (Bayer Pharma Aktiengesellschaft, priority 2015, published 2019).)
